Measured values: patent US10526316B2, “Quinoxaline and pyridopyrazine derivatives as PI3Kβ inhibitors” (Janssen Pharmaceutica NV, priority 2015, dated 2020)
pIC50, pKd: −log10 of the molar value. Like-named read-outs stand apart in the source and are kept apart here.

Columns and labels:
PI3Kβ = molecular target: T1, PI3Kβ (Homo sapiens, UniProt P42338); assay: Enzyme binding assay (KINOMEscan, DiscoveRx); conditions: PIK3Cβ_h, read-out: Kd PIK3Cβ_h
T1 construct: purchased DiscoveRx Corporation, San Diego (contract service, KINOMEscan)
T1 sequence (P42338 whole entry): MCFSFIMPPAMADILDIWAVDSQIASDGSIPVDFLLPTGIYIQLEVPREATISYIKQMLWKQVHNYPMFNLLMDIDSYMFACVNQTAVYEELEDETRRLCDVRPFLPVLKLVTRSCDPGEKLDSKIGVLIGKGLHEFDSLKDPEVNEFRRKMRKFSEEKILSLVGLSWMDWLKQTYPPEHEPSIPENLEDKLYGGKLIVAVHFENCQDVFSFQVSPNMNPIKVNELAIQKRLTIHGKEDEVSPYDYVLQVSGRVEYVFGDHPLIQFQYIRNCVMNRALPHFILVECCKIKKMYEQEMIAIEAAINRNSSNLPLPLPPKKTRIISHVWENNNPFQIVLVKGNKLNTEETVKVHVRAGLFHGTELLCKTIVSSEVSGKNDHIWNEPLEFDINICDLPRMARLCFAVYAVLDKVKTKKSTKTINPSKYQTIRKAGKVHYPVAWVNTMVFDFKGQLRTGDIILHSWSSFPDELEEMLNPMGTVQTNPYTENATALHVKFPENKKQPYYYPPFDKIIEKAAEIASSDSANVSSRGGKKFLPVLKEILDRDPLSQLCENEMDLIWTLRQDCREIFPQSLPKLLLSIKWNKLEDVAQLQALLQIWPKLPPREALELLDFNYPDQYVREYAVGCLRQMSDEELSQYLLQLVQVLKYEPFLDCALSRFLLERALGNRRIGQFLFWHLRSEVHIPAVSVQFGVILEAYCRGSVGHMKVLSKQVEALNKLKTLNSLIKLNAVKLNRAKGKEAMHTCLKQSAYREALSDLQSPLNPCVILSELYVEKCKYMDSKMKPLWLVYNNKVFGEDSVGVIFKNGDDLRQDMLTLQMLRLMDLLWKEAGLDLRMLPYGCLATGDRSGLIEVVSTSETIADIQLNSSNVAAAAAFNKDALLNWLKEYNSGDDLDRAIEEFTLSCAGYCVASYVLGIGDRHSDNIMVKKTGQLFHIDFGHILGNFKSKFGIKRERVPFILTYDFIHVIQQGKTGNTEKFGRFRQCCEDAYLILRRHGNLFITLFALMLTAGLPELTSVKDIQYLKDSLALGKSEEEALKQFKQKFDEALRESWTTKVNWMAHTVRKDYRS
How it was run: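 Kinase binding affinities were measured with KINOMEscan technology. Results are given as Kd, the inhibitor binding constant, in nM.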

PI3Kδ = molecular target: T2, PI3Kδ (Homo sapiens, UniProt O00329); assay: Enzyme binding assay (KINOMEscan, DiscoveRx); conditions: PIK3Cδ_h
T2 construct: purchased DiscoveRx Corporation, San Diego (contract service, KINOMEscan)
T2 sequence (O00329 1-1044): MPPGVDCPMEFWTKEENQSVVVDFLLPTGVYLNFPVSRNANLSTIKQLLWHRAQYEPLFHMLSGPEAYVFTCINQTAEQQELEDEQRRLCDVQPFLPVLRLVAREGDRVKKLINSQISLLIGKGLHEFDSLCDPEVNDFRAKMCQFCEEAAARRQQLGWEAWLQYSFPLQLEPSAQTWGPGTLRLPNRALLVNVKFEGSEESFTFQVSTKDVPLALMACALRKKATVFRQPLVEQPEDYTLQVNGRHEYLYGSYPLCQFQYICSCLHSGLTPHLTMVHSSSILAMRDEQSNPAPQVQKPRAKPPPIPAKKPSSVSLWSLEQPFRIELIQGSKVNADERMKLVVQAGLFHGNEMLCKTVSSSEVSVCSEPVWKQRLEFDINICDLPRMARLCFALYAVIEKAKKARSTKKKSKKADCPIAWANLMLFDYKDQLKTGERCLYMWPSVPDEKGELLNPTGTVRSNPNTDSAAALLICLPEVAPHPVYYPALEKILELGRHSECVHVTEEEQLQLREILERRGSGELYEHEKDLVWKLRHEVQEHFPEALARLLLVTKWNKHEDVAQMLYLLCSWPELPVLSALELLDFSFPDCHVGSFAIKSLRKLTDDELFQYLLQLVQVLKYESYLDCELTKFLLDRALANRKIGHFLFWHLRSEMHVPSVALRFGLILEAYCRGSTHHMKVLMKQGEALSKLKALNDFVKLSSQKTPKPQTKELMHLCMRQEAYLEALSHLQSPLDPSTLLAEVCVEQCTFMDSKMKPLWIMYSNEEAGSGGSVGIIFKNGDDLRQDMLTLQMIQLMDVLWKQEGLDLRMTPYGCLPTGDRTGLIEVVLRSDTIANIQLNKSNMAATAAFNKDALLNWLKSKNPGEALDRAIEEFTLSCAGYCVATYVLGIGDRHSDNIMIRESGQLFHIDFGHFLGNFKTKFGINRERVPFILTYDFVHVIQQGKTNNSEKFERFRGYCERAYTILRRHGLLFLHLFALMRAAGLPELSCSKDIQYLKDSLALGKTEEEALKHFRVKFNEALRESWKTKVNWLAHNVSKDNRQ
How it was run: (§1)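 Binding affinities were measured on the KINOMEscan platform.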

kinase enzymes [1] = molecular target: T3, kinase enzymes (Homo sapiens, UniProt P42336); assay: Enzyme binding assay (KINOMEscan, DiscoveRx), further kinases of Table A; conditions: PIK3Cα_h
T3 construct: purchased DiscoveRx Corporation, San Diego (contract service, KINOMEscan)
T3 sequence (P42336 whole entry): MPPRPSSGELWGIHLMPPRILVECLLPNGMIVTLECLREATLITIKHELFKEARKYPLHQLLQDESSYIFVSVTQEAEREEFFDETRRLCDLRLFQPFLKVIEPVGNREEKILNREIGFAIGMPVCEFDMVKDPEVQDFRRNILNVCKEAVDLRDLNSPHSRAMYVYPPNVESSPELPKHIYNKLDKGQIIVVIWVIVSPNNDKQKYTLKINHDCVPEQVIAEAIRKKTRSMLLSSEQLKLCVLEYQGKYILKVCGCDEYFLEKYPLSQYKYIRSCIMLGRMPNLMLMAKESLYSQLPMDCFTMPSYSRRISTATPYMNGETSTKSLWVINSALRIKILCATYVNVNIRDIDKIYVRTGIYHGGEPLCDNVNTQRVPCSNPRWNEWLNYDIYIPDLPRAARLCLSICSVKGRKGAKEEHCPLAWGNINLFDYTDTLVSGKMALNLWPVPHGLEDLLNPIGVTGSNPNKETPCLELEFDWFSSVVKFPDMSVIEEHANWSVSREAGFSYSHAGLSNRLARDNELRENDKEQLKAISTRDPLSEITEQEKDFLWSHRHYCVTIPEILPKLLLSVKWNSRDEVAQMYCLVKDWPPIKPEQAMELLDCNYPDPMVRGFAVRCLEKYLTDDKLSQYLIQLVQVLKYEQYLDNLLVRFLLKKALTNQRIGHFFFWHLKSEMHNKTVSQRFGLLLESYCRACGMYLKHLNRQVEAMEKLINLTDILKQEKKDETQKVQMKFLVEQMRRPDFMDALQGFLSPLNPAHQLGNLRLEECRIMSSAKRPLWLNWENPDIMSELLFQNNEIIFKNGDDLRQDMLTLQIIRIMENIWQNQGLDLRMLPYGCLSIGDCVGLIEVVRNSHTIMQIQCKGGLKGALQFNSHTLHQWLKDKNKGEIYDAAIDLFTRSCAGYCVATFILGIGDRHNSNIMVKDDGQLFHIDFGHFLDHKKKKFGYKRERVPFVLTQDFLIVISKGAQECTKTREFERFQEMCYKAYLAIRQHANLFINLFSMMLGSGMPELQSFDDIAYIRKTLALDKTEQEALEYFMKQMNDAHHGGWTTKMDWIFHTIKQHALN
How it was run: as §1

kinase enzymes [2] = molecular target: T4, kinase enzymes (Homo sapiens, UniProt P42345); assay: as above; conditions: MTOR_h
T4 construct: purchased DiscoveRx Corporation, San Diego (contract service, KINOMEscan)
How it was run: as §1

kinase enzymes [3] = molecular target: T5, kinase enzymes (Homo sapiens, UniProt P48736); assay: as above; conditions: PIK3Cγ_h
T5 construct: purchased DiscoveRx Corporation, San Diego (contract service, KINOMEscan)
T5 sequence (P48736 whole entry): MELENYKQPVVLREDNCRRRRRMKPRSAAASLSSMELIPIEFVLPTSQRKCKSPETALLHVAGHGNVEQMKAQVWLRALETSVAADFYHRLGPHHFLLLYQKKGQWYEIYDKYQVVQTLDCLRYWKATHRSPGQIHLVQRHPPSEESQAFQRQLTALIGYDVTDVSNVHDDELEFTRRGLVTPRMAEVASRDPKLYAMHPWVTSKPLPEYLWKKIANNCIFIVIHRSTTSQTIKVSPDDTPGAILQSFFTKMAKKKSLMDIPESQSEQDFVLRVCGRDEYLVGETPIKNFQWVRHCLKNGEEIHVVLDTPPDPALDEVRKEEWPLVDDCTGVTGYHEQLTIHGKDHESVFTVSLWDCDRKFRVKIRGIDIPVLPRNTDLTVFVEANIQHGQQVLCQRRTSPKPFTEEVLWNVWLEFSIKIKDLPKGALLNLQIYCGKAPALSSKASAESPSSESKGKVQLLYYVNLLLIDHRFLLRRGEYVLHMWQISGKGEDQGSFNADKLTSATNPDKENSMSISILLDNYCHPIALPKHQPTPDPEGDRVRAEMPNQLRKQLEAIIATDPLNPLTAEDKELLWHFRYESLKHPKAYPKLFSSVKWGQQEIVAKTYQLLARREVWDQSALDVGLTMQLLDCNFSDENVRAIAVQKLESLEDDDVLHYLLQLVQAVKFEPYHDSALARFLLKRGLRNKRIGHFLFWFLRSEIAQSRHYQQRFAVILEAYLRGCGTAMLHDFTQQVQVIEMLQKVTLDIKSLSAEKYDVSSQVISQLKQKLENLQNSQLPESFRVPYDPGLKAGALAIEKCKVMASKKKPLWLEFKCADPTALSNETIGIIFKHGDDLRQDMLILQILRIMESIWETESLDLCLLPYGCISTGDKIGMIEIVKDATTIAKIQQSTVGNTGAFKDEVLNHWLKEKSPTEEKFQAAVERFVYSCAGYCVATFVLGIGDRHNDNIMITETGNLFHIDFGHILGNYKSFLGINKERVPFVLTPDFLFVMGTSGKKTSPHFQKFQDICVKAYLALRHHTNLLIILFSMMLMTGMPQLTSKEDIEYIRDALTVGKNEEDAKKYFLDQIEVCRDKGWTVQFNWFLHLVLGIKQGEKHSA
How it was run: as §1

[4] = system: Akt phosphorylated at Ser473 in PC-3 cells; assay: Cellular assay: phosphorylation of Akt at Ser473 in PC-3 cells (MSD ELISA); assay type: cell-based; conditions: PC-3 cells, 60 min compound incubation, MSD ELISA, read-out: IC50 pAkt_S473
How it was run: (§2)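 Electrochemiluminescent sandwich ELISA read-out: phospho-specific capture (Ser473 or Thr308), Sulfo-tag anti-total Akt detection, signal proportional to phospho-Akt. Cells treated 60 min at 37° C with compound, DMSO 0.3%. IC50 fitted from five concentrations.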

[5] = system: Akt phosphorylated at Thr308 in PC-3 cells; assay: Cellular assay: phosphorylation of Akt at Thr308 in PC-3 cells (MSD ELISA); assay type: cell-based; conditions: PC-3 cells, 60 min compound incubation, MSD ELISA, read-out: IC50 pAkt_Thr308
How it was run: as §2

SMILES | pKd (PI3Kβ) | pKd (PI3Kδ) | pKd (kinase enzymes [1]) | pKd (kinase enzymes [2]) | pKd (kinase enzymes [3]) | pIC50 [4] | pIC50 [5] | melting point [°C] | pIC50 ([4]; Homo sapiens, PC-3, 1 h) | pIC50 ([5]; Homo sapiens, PC-3, 1 h)
CC(C)NCCNC(=O)c1cc(C(C)Nc2cccc(F)c2)c2nc(N3CCOCC3)cnc2c1 (single isomer, unassigned) [Compound 227] | 9.00 | 6.47 | 5.75 | < 4.52 | 5.42 | 7.57 | 7.70 | 80 |  | 
CC(Nc1ccc(F)c(F)c1)c1cc(C(=O)NCC2CCCN2)cc2ncc(N3CCOCC3)nc12 (single isomer, unassigned) [Compound 329b] | 7.38 | 5.75 | 5.22 | 4.64 | 5.20 | < 6.29 | < 6.29 | 124 |  | 
CN[C@@H]1CCN(C(=O)c2cc(C(C)Nc3ccc(F)c(F)c3)c3nc(N4CCOCC4)cnc3c2)C1 (single isomer, unassigned) [Compound 371b] | 7.70 | 5.30 | 4.90 | < 4.52 | 4.96 | < 6.29 | 6.60 | 107 |  | 
CC(Nc1cc(F)cc(F)c1)c1cc(C(=O)NS(N)(=O)=O)cc2ncc(N3CCOCC3)nc12 (single isomer, unassigned) [Compound 243b] | 7.85 | 5.47 | 5.78 | 5.87 | 5.71 | < 6.29 | < 6.29 | 200 |  | 
O=C(O)c1cc(C2CCCN2c2cc(F)cc(F)c2)c2nc(N3CCOCC3)cnc2c1 (single isomer, unassigned) [Compound 251] | 9.52 | 7.64 | 8.10 | 6.17 | 7.19 |  |  | 299 | 7.28 | 7.64
COc1cc(F)cc(N2CCCC2c2cc(C(=O)N(C)C)cc3ncc(N4CCOCC4)nc23)c1 (centres unmarked) [Compound 32] | 9.00 | 7.07 | 6.92 | < 4.52 | 6.19 |  |  | 80 | 7.92 | 7.77
CN(C)C(=O)c1cc(N2CCC2c2ccc(F)cc2)c2nc(N3CCOCC3)cnc2c1 (single isomer, unassigned) [Compound 397a] | 5.85 | 4.97 | 5.44 | 4.81 | 4.60 |  |  | 80 | < 6.29 | < 6.29
CON(C)C(=O)c1cc(C2CCCN2c2cc(F)cc(F)c2)c2nc(N3CCOCC3)cnc2c1 (centres unmarked) [Compound 51] | 9.00 | 7.41 | 7.26 | < 4.52 | 6.47 |  |  | 80 | 8.52 | 8.52
CC(Nc1ccc(F)c(F)c1)c1cc(C(=O)N2C[C@@H](C)N[C@@H](C)C2)cc2ncc(N3CCOCC3)nc12 (single isomer, unassigned) [Compound 357a] | 5.48 | 4.79 | 4.64 | < 4.52 | < 4.52 |  |  | 116 | < 6.29 | < 6.29
CC(Nc1cc(F)cc(F)c1)c1cc(C(=O)N(C)C)cc2ncc(N3CCOCC3)nc12 (single isomer, unassigned) [Compound 13] | 6.74 | 5.23 | 4.62 | < 4.52 | < 4.52 | < 6.29 | < 6.29 | 217 |  | 
CC(Nc1ccc(F)c(F)c1)c1cc(C(=O)N(C)C2CCNC2)cc2ncc(N3CCOCC3)nc12 (centres unmarked) [Compound 322b] | 9.52 | 7.17 | 5.66 | < 4.52 | 5.21 | 7.38 | 7.59 | 80 |  | 
Cc1cc(F)cc(N2CCCC2c2cc(C(=O)N(C)C)cc3ncc(N4CCOCC4)nc23)c1 (centres unmarked) [Compound 35] | 8.70 | 6.82 | 6.79 | < 4.52 | 5.72 |  |  | 80 | ~7.41 | ~7.57
CN(C)C(=O)c1cc(NCc2cc(F)cc(F)c2)c2nc(N3CCOCC3)cnc2c1 [Compound 278] | 8.10 | 5.76 | 5.68 | 4.71 | 4.80 |  |  | 158 | 6.53 | 6.75
CC(c1cc(C(=O)N2CCOCC2)cc2ncc(N3CCOCC3)nc12)N(CCO)c1cc(F)cc(F)c1 (centres unmarked) [Compound 129] | 8.52 | 5.97 | 5.75 | 5.01 | 5.05 |  |  | 80 | 6.95 | 6.98
OC(CN1CCC1)c1cc(C2CCCN2c2cc(F)cc(F)c2)c2nc(N3CCOCC3)cnc2c1 (single isomer, unassigned) [Compound 94] | 10.00 | 7.54 | 7.10 | 4.67 | 6.75 | 8.10 |  | 80 |  | 7.92
CC(Nc1cc(F)cc(F)c1)c1cc(C2=NC(C)(C)CO2)cc2ncc(N3CCOCC3)nc12 (centres unmarked) [Compound 186] | 8.00 | 5.75 | 5.20 | < 4.52 | 4.56 |  |  | 80 | 6.47 | 6.74
